What was measured:
[1] = compound: NC1(c2ccc(-c3nc4ccn5c(=O)[nH]nc5c4cc3-c3ccccc3)cc2)CCC1 [MK-2206]; conditions: max 10 µM
Method in brief: (§1)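 Cancer cell lines in 1536-well plates (7.5 μl DMEM/F12 or RPMI, 10% FBS) were held 24 hours at 37°C and 5% CO2 and then dosed for 72 hours at a final DMSO of typically 0.2%. Viability was taken from CellTiter-Glo 2.0 luminescence, scaled between blank-well and DMSO-well means. Curves were fitted as two-parameter logistic models with a non-linear mixed effects model, from which the single-agent IC50 was taken.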

[2] = compound: CCN(CCO)CCCOc1ccc2c(Nc3cc(CC(=O)Nc4cccc(F)c4)[nH]n3)ncnc2c1 [AZD2811]; conditions: max 1 µM
Method in brief: as §1

[3] = compound: Cc1c2c(nn1C)CSCc1cc(n(C)n1)CSc1cc(c3ccccc3c1)OCCCc1c(C(=O)O)n(C)c3c-2c(Cl)ccc13 [AZD5991]; conditions: max 1 µM
Method in brief: as §1

[4] = compound: COc1cc2ncnc(Nc3ccc(F)c(Cl)c3)c2cc1OCCCN1CCOCC1 [Gefitinib]; conditions: max 10 µM
Method in brief: as §1

[5] = compound: COc1nnc2ccc(N3CCC(c4ccc(OCCN5CCN(C)C(=O)[C@H]5C)cc4)CC3)nn12 [AZD5153]; conditions: max 1 µM
Method in brief: as §1

[6] = compound: CCc1c2c(nc3ccc(O)cc13)-c1cc3c(c(=O)n1C2)COC(=O)[C@]3(O)CC [SN-38]; conditions: max 0.3 µM
Method in brief: as §1

[7] = compound: CS(=O)(=O)CCNCc1ccc(-c2ccc3ncnc(Nc4ccc(OCc5cccc(F)c5)c(Cl)c4)c3c2)o1 [Lapatinib]; conditions: max 10 µM
Method in brief: as §1

[8] = compound: COc1cccc(OCCCN)c1-c1cc(Nc2cnc(C#N)cn2)n[nH]1 [Prexasertib]; conditions: max 1 µM
Method in brief: as §1

[9] = compound: COc1cccc2c1C(=O)c1c(O)c3c(c(O)c1C2=O)C[C@@](O)(C(=O)CO)C[C@@H]3O[C@H]1C[C@H](N)[C@H](O)[C@H](C)O1 [Doxorubicin]; conditions: max 1 µM
Method in brief: as §1

[10] = compound: Cc1cc2ncnn2cc1Nc1ncc2c(n1)n(C1CCOCC1)c(=O)n2C [AZD7648]; conditions: max 10 µM
Method in brief: as §1

[11] = compound: CC1(C)CCC(CN2CCN(c3ccc(C(=O)NS(=O)(=O)c4ccc(NCC5CCOCC5)c([N+](=O)[O-])c4)c(Oc4cnc5[nH]ccc5c4)c3)CC2)=C(c2ccc(Cl)cc2)C1 [Venetoclax]; conditions: max 1 µM
Method in brief: as §1

[12] = compound: CC1=C(C(=CC=C1)Cl)NC(=O)C2=CN=C(S2)NC3=CC(=NC(=N3)C)N4CCN(CC4)CCO [Dasatinib]; conditions: max 2 µM
Method in brief: as §1

[13] = compound: C[C@@H](Oc1cc(-c2cnn(C3CCNCC3)c2)cnc1N)c1c(Cl)ccc(F)c1Cl [Crizotinib]; conditions: max 10 µM
Method in brief: as §1

[14] = compound: C1CN(CCC1(C(=O)N[C@@H](CCO)C2=CC=C(C=C2)Cl)N)C3=NC=NC4=C3C=CN4 [Capivasertib]; conditions: max 10 µM
Method in brief: as §1

[15] = compound: C[C@@H]1COCCN1C2=NC(=NC(=C2)C3(CC3)[S@](=N)(=O)C)C4=C5C=CNC5=NC=C4 [AZD6738]; conditions: max 10 µM
Method in brief: as §1

[16] = compound: Cc1nc(-c2cn3c(n2)-c2ccc(-c4cnn(C(C)(C)C(N)=O)c4)cc2OCC3)n(C(C)C)n1 [Taselisib]; conditions: max 10 µM
Method in brief: as §1

[17] = compound: CN(CC[C@H](CSC1=CC=CC=C1)NC2=C(C=C(C=C2)S(=O)(=O)NC(=O)C3=CC=C(C=C3)N4CCC(CC4)[C@H](C5=CC=CC=C5C6=CC=C(C=C6)Cl)O)S(=O)(=O)C(F)(F)F)CCO [AZD4320]; conditions: max 1 µM
Method in brief: as §1

[18] = compound: CN(C)CCCOc1ccc(-c2ccc3ncc4c(c3c2)n(C2CCOCC2)c(=O)n4C)cn1 [AZD0156]; conditions: max 3 µM
Method in brief: as §1

[19] = compound: C[C@@H](c1ccc2nccn2c1)n1nnc2ncc(-c3cnn(C)c3)nc21 [Savolitinib]; conditions: max 1 µM
Method in brief: as §1

[20] = compound: Cn1cnc2c(F)c(Nc3ccc(Br)cc3Cl)c(C(=O)NOCCO)cc21 [Selumetinib]; conditions: max 10 µM
Method in brief: as §1

[21] = compound: COc1cc(Nc2ncc3c(n2)-c2ccc(Cl)cc2C(c2c(F)cccc2OC)=NC3)ccc1C(=O)O [Alisertib]; conditions: max 10 µM
Method in brief: as §1

[22] = compound: CC1=CN2[C@@H](C1)C=NC3=CC(=C(C=C3C2=O)OC)OCCCCCOC4=C(C=C5C(=C4)N=C[C@@H]6CC(=CN6C5=O)C)OC [SG3199]; conditions: max 0.001 µM
Method in brief: as §1

[23] = compound: CC(C)n1c(=O)n(C)c2cnc3cc(F)c(-c4ccc(OCCCN5CCCCC5)nc4)cc3c21 [AZD1390]; conditions: max 0.3 µM
Method in brief: as §1

[24] = compound: CC(=O)Nc1cccc(-n2c(=O)n(C3CC3)c(=O)c3c(Nc4ccc(I)cc4F)n(C)c(=O)c(C)c32)c1 [Trametinib]; conditions: max 1 µM
Method in brief: as §1

[25] = compound: CC(=O)c1c(C)c2cnc(Nc3ccc(N4CCNCC4)cn3)nc2n(C2CCCC2)c1=O [Palbociclib]; conditions: max 10 µM
Method in brief: as §1

[26] = compound: C[C@@H](Nc1cc(F)cc(F)c1)c1cc(C(=O)N(C)C)cc2c(=O)cc(N3CCOCC3)oc12 [AZD8186]; conditions: max 3 µM
Method in brief: as §1

[27] = compound: C=CCn1c(=O)c2cnc(Nc3ccc(N4CCN(C)CC4)cc3)nc2n1-c1cccc(C(C)(C)O)n1 [AZD1775]; conditions: max 3 µM
Method in brief: as §1

[28] = compound: O=C(c1cc(Cc2n[nH]c(=O)c3ccccc23)ccc1F)N1CCN(C(=O)C2CC2)CC1 [Olaparib]; conditions: max 10 µM
Method in brief: as §1

Cell Line	IC50, cell viability 72 h [1]	IC50, cell viability 72 h [2]	IC50, cell viability 72 h [3]	IC50, cell viability 72 h [4]	IC50, cell viability 72 h [5]	IC50, cell viability 72 h [6]	IC50, cell viability 72 h [7]	IC50, cell viability 72 h [8]	IC50, cell viability 72 h [9]	IC50, cell viability 72 h [10]	IC50, cell viability 72 h [11]	IC50, cell viability 72 h [12]	IC50, cell viability 72 h [13]	IC50, cell viability 72 h [14]	IC50, cell viability 72 h [15]	IC50, cell viability 72 h [16]	IC50, cell viability 72 h [17]	IC50, cell viability 72 h [18]	IC50, cell viability 72 h [19]	IC50, cell viability 72 h [20]	IC50, cell viability 72 h [21]	IC50, cell viability 72 h [22]	IC50, cell viability 72 h [23]	IC50, cell viability 72 h [24]	IC50, cell viability 72 h [25]	IC50, cell viability 72 h [26]	IC50, cell viability 72 h [27]	IC50, cell viability 72 h [28]
SW756 (Cervical Carcinoma)	> 10000 nM	> 1000 nM	> 1000 nM	> 10000 nM	> 1000 nM	32.3 nM	> 10000 nM	> 1000 nM	> 1000 nM	> 10000 nM	> 1000 nM	> 2000 nM	> 10000 nM	> 10000 nM	> 10000 nM	> 10000 nM	> 1000 nM	> 3000 nM	> 1000 nM	> 10000 nM	> 10000 nM	> 1 nM	> 300 nM	> 1000 nM	> 10000 nM	> 3000 nM	> 3000 nM	> 10000 nM
SW780 (Bladder Carcinoma)	> 10000 nM	> 1000 nM	> 1000 nM	> 10000 nM	> 1000 nM	247 nM	> 10000 nM	> 1000 nM	> 1000 nM	> 10000 nM	> 1000 nM	> 2000 nM	> 10000 nM	> 10000 nM	> 10000 nM	> 10000 nM	> 1000 nM	> 3000 nM	> 1000 nM	> 10000 nM	> 10000 nM	> 1 nM	> 300 nM	> 1000 nM	> 10000 nM	> 3000 nM	> 3000 nM	> 10000 nM
TGBC24TKB (Biliary Tract Carcinoma)	> 10000 nM	923 nM	> 1000 nM	> 10000 nM	665 nM	> 300 nM	8010 nM	49.4 nM	> 1000 nM	> 10000 nM	> 1000 nM	> 2000 nM	9900 nM	> 10000 nM	7400 nM	561 nM	> 1000 nM	> 3000 nM	> 1000 nM	> 10000 nM	1860 nM	> 1 nM	> 300 nM	933 nM	> 10000 nM	> 3000 nM	815 nM	> 10000 nM

Reference: the supplement of paper PMC11061612
